From ChEMBL document CHEMBL2177097, “Discovery of (2S,3R)-N-[2-(pyridin-3-ylmethyl)-1-azabicyclo[2.2.2]oct-3-yl]benzo[b]furan-2-carboxamide (TC-5619), a selective α7 nicotinic acetylcholine receptor agonist, for the treatment of cognitive disorders” (J Med Chem, 2012) come the findings set out here.

Molecules are shown by their SMILES. Where only a bound is given, the exact number is not on record here.

Series [1] can be described thus: Drug degradation in human liver microsomes at 60 mins. Format: ADME, Microsome. To be noted: read-out: Drug degradation. (In general: Microsomes from liver hold many membrane-bound enzymes, among them those of drug oxidation.)
Series [2] can be described thus: Drug degradation in human hepatocytes at 4 hrs. It is filed as ADME, cell-based, Hepatocyte. To be noted: read-out: Drug degradation.
Series [3] in a line: Ratio of drug level in brain to plasma in rat measured 6 hrs post dose. It is filed as ADME. Conditions: brain and plasma, read-out: BPR.
Series [4] is described as follows: Half life in rat. To be noted: in vivo. Format: ADME, organism-based.
The nature of series [5]: Oral bioavailability in rat. Conditions: in vivo. Format: ADME, organism-based.

For orientation: half-life means the time in which the quantity being followed falls by half. A word on the bioavailability: it is the share of a dose that reaches the circulation, judged against a reference dose that is usually intravenous. A high value points to good availability.

As for `O=C(N[C@@H]1C2CCN(CC2)[C@H]1Cc1cccnc1)c1cc2ccccc2o1` [BRADANICLINE], the metabolised at 1 h in series [1] is < 25%. The metabolised at 4 h in series [2] was found to be 27%. Also, the Kp at 6 h in series [3] was 0.4. The same compound had a half-life in series [4] of 2 h. In addition, the bioavailability in series [5] turned out to be 20%.
